Test results as given in paper PMC3433414, “Oral Administration of the Pimelic Diphenylamide HDAC Inhibitor HDACi 4b Is Unsuitable for Chronic Inhibition of HDAC Activity in the CNS In Vivo” (PLoS ONE, 2012).

How the values were obtained:
[1] = Permeability in MDCK cells; assay type: in vitro ADME; conditions: dog, pH 7.4
Method: The MDR1-MDCKII and wild type MDCKII cell lines (obtained from SOLVO Biotechnology) were cultured in accordance with the guidelines provided by SOLVO Biotechnology. Both wild-type MDCK and MDR1-MDCK cells were seeded at a cell density of 2.3×10^5 cells/well into 24-well Transwell plates and cultured for three days to form monolayers. Test compound was loaded into the donor compartments of the Transwell plate (24-well) bearing MDR1-MDCK or wild type MDCK monolayers. Test compound was added to either the apical or basolateral chambers of the Transwell plate assembly at a concentration of 10 µM in Hanks’ Balanced Salt Solution containing 25 mM HEPES (pH 7.4). Lucifer Yellow was added to the apical buffer in all wells and its permeation monitored to assess integrity of the cell layer. […] Concentrations of compound in the samples were measured by LC-MS/MS. Concentrations of LY in the samples were measured using a fluorescence plate reader. The apparent permeability (Papp) values of test compound were determined for both the apical to basal (A>B) and basal to apical (B>A) permeation and the efflux ratio (B>A: A>B) determined in both the wild type MDCK and MDR1-MDCK cells. Apparent permeability (Papp) values were calculated from the relationship: [drawing 5] […]

[2] = target: T1, human recombinant HDAC2 (Homo sapiens, UniProt Q92769); test: Two-step fluorogenic deacetylase assay, recombinant HDAC2; assay type: biochemical
T1 construct: purified recombinant human full length HDAC1 (cat# 50051), HDAC2 (cat# 50052); purchased BPS Bioscience (San Diego, CA) 50052
Text: To assess the biochemical and cellular potency of 4b and its conversion products/metabolites, we utilized the two-step fluorogenic assay which measures the HDAC-mediated catalytic conversion of synthetic acetylated lysine substrates. In brief, on deacetylation of the substrates by HDAC activity, a protease site is unmasked which allows subsequent trypsin-mediated cleavage and release of the highly flourescent AMC molecules in a subsequent step of the assay. The substrates used were Lys_Ac_AMC (Bachem I-1875) for HDAC3 and (Ac)Arg-Gly-Lys(Ac) (Bachem I-1925) for HDAC1 and HDAC2. […] However, the relatively labile and sterically more demanding trifluoracetyl group is readily hydrolyzed by the catalytically less avid Class IIa enzymes, allowing measurement of Class IIa activity using the 2-step fluorogenic assay. […]
For evaluation of the class selectivity of the compounds, we assessed inhibition against purified recombinant human full length HDAC1 (cat# 50051), HDAC2 (cat# 50052), HDAC3-NcoR2 (cat# 50003) and HDAC8 (cat# 50008): as representative of Class I activity; catalytic domain HDAC4(αα 648–1057), HDAC5 (αα 657–1123; cat # 50005), HDAC7 (αα 518-end; cat # 50007) and HDAC9 (αα 604–1066; cat # 50009) activity: representing all Class IIa activity; and full length HDAC6 (cat#50006): representing Class IIb activity. […]

T1 sequence (Q92769 whole entry): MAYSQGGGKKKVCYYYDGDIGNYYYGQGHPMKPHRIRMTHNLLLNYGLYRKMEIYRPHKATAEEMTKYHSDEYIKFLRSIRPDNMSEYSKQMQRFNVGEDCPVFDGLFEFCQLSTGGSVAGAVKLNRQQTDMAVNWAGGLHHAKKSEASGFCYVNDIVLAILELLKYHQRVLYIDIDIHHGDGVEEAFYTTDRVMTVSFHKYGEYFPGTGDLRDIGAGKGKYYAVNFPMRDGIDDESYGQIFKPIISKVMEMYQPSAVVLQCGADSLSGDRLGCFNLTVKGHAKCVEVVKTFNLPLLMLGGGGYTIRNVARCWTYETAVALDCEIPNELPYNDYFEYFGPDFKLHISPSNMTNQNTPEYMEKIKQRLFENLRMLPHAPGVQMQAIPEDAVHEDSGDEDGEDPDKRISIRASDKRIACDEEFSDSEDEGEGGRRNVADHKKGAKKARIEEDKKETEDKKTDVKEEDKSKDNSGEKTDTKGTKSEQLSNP

Work on Nc1ccccc1NC(=O)CCCCCC(=O)Nc1ccccc1 [Compound 4b] yielded a Papp A→B at 1 h, 10 µM [1] of 10.8 ×10⁻⁶ cm/s and an IC50 [2] of 2230 nM.
